Data as given in PubChem BioAssay (NCI).
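Results reflect a 48-hour exposure of cells in 96-well plates to compound at five concentrations. GI50 marks 50% less growth. TGI is the concentration that stops growth completely.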

How the values were obtained:
Assay in all cases: NCI anticancer screen, dose series, 48 h
HCT-15 colon = tested on: HCT-15 colon
HL-60(TB) leukemia = tested on: HL-60(TB) leukemia
SNB-19 CNS = tested on: SNB-19 CNS
786-0 renal = tested on: 786-0 renal
SW-620 colon = tested on: SW-620 colon
NCI-H226 lung = tested on: NCI-H226 lung
UACC-257 melanoma = tested on: UACC-257 melanoma
HT29 colon = tested on: HT29 colon
A549 NSCLC = tested on: A549 NSCLC
SR leukemia = tested on: SR leukemia

SMILES | TGI (HCT-15 colon) | TGI (HL-60(TB) leukemia) | TGI (SNB-19 CNS) | TGI (786-0 renal) | TGI (SW-620 colon) | TGI (NCI-H226 lung) | TGI (UACC-257 melanoma) | TGI (HT29 colon) | TGI (A549 NSCLC) | TGI (SR leukemia) | GI50 (HCT-15 colon) | GI50 (SNB-19 CNS) | GI50 (786-0 renal) | GI50 (NCI-H226 lung) | GI50 (UACC-257 melanoma) | GI50 (HT29 colon) | GI50 (A549 NSCLC) | GI50 (HL-60(TB) leukemia) | GI50 (SW-620 colon)
C=CCN=C1NC(=O)C(CC(=O)Nc2cccc(Cl)c2)S1 (stereo not drawn) | > 100 µM | > 100 µM | > 100 µM | > 100 µM | > 100 µM | > 100 µM | > 100 µM | > 100 µM | > 100 µM |  |  |  |  |  |  |  |  |  | 
CC(=O)N(N=O)c1ccc(N(N=O)C(C)=O)cc1 | > 100 µM | > 100 µM | > 100 µM | > 100 µM | > 100 µM | > 100 µM |  | > 100 µM | > 100 µM | > 100 µM |  |  |  |  |  |  |  |  | 
Cn1nc(-c2ccccc2)c2c(/C=C/c3ccc(F)cc3)onc2c1=O | > 100 µM | > 100 µM |  | > 100 µM | > 100 µM |  |  | > 100 µM | > 100 µM |  |  |  |  |  |  |  |  |  | 
CO/S(=N/S(=O)(=O)c1ccccc1)c1ccccc1[N+](=O)[O-] (stereo not drawn) | > 100 µM |  | > 100 µM | > 100 µM | > 100 µM | > 100 µM | > 100 µM | > 100 µM | > 100 µM | > 100 µM |  |  |  |  |  |  |  |  | 
CCCCCCCCCCNC(=S)OC | 86.7 µM | 44.8 µM | > 100 µM | > 100 µM | > 100 µM |  | 83.8 µM | > 100 µM | > 100 µM | 55.4 µM |  |  |  |  |  |  |  |  | 
C=C1C2CC(OC(C)=O)C3(C)C(c4ccoc4)OC(=O)[C@@H](O)[C@]13OC1C[C@H](OC(C)=O)C(C)(C)[C@H](C(O)C(=O)OC)[C@]12C (stereo partly drawn) | > 100 µM | > 100 µM | > 100 µM | > 100 µM | > 100 µM | > 100 µM |  | > 100 µM | > 100 µM |  |  |  |  |  |  |  |  |  | 
Cc1cc(C)c([I+]c2c(C)cc(C)cc2C)c(C)c1 | 6.76 µM |  | 1.76 µM | 2.11 µM |  | 1.92 µM | 1.09 µM | 1.29 µM | 2.47 µM |  | 2.15 µM | 0.444 µM | 0.749 µM | 0.505 µM | 0.296 µM | 0.279 µM | 0.958 µM |  | 
O=[N+]([O-])c1cc(I)cc(/C=N/NS(=O)(=O)c2ccc(F)cc2)c1O | 64.7 µM | 54.4 µM | > 100 µM | 82.9 µM | > 100 µM |  | 62.3 µM | 46.5 µM | > 100 µM | 46.2 µM |  |  |  |  |  |  |  |  | 
CO[C@H]1/C=C/O[C@@]2(C)Oc3c(C)c(O)c4c(O)c(c(/C=N/N5C(C)CN(Cc6ccc(C#N)cc6)CC5C)c(O)c4c3C2=O)NC(=O)/C(C)=C\C=C\[C@H](C)[C@H](O)[C@@H](C)[C@@H](O)[C@@H](C)[C@H](OC(C)=O)[C@@H]1C (stereo partly drawn) | 14 µM | 18.6 µM | 18.1 µM | 16.8 µM | 17.5 µM | 12.9 µM | 15.8 µM | 14.4 µM | 17.1 µM |  | 6.01 µM | 7.55 µM | 8.79 µM | 6.06 µM | 6.35 µM | 6.87 µM | 6.81 µM | 7.19 µM | 8.15 µM
CC(C)(C)OC(=O)NC(Cc1ccccc1)C(=S)N1CCCC1 (stereo not drawn) | > 100 µM | > 100 µM | > 100 µM | > 100 µM | > 100 µM | > 100 µM | > 100 µM | > 100 µM | > 100 µM |  |  |  |  |  |  |  |  |  | 
Oc1ccc(Br)cc1C=NC1CCCCC1 | > 100 µM | 44.5 µM | > 100 µM | > 100 µM | > 100 µM |  | > 100 µM | > 100 µM | > 100 µM |  |  |  |  |  |  |  |  |  | 
